In patent US7144890B2, “Spiro-pentacyclic compounds” (Hoffman-La Roche Inc., priority 2004, dated 2006):

Columns and labels:
[1] = doses of 5, 10 and 20 mg daily; cited from earlier work
[2] = biological target: T1, human cannabis CB1 receptor (Homo sapiens, UniProt P21554); test: Affinity for cannabinoid CB1 receptor, [3H]-CP-55,940 radioligand binding on HEK cell membranes; conditions: affinity for the CB1 receptor
T1 construct: expressed in transfected cells; host or cells: human embryonic kidney (HEK) cells, Semliki Forest Virus system, membrane preparation
Description: The affinity of the compounds of the invention for cannabinoid CB1 receptors was determined using membrane preparations of human embryonic kidney (HEK) cells in which the human cannabis CB1 receptor is transiently transfected using the Semliki Forest Virus system in conjunction with [3H]-CP-55,940 as radioligand. After incubation of a freshly prepared cell membrane preparation with the [3H]-ligand, with or without addition of compounds of the invention, separation of bound and free ligand was performed by filtration over glassfiber filters. Radioactivity on the filter was measured by liquid scintillation counting.

T1 sequence (P21554 whole entry): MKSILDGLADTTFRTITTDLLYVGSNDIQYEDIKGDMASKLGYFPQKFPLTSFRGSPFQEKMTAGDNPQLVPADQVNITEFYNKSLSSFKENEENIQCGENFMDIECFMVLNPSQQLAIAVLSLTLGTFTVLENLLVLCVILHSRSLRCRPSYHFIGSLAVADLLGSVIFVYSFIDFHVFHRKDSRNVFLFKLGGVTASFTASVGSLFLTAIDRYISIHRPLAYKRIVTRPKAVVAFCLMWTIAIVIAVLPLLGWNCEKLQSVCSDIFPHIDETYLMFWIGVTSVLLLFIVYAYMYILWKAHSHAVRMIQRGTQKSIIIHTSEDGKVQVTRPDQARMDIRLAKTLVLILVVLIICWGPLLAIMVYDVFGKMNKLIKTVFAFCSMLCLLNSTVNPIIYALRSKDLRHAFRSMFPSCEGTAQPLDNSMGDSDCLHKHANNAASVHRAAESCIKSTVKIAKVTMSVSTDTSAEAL

Compound | body weight compared to placebo [1] | IC50 [2]
Cc1c(C(=O)NN2CCCCC2)nn(-c2ccc(Cl)cc2Cl)c1-c1ccc(Cl)cc1 [SR 141716] | significantly reduced body weight | 
O=C(c1cc2c(cc1F)OC1(O2)c2ccc(Cl)cc2CCc2cc(Cl)ccc21)N1CCOCC1 [Example 1, 4-[(2′,8′-dichloro-6-fluoro-10′,11′-dihydrospiro[1,3-benzodioxole-2,5′-[5H]dibenzo[a,d]cyclohepten]-5-yl)carbonyl]-morpholine] |  | 13 nM
O=C(c1ccc2c(c1)OC1(O2)c2ccc(Cl)cc2CCc2cc(Cl)ccc21)C1CCNCC1 [Example 2, 4-[(2′,8′-dichloro-10′,11′-dihydrospiro[1,3-benzodioxole-2,5′-[5H]dibenzo[a,d]cyclohepten]-5-yl)carbonyl]-piperidine] |  | 18 nM
